This test addresses OTU domain-containing protein 3 (Homo sapiens) (UniProt Q5T2D3). Put plainly: Validation of screening hits, potency titration, in vitro enzymatic, OTU domain-containing protein 3 DUB inhibitors (AID 1645868). The following applies: purified OTUD3, ubiquitin-rhodamine cleavage fluorescence, 2 h.

Structures are written as SMILES. The source made the active and inactive calls.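 How the source made its calls: active means maximal percent inhibition of the deubiquitinase OTUD3 of at least 30% across the tested doses; inactive means the rest.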

Sequence of OTU domain-containing protein 3 (Homo sapiens) (Q5T2D3 whole entry, looked up, the tested form may be a part): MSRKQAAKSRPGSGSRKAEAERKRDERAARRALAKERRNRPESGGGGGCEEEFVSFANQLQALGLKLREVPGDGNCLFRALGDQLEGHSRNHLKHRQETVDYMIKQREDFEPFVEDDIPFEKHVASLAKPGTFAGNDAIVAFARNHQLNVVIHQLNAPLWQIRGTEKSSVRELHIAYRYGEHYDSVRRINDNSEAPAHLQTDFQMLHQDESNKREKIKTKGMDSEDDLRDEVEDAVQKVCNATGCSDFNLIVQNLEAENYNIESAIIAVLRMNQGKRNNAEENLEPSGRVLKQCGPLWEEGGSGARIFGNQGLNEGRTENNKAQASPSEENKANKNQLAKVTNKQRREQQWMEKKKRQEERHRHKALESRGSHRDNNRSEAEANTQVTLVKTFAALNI

In the case of `CCCc1cc(=O)oc2cc(OCC(=O)NCc3ccc(OC)cc3)ccc12`, the IC50 is 36.2 µM.

`O=c1cc(CNc2ccc(Br)cc2)nc2nc(-c3ccccc3)[nH]n12`: the IC50 is > 50 µM (inactive).

For the compound `O=C(CCCc1c[nH]c2ccccc12)Nc1ccc2c(c1)OCCO2`, the IC50 is > 50 µM (inactive).

For the compound `O=C(Nc1cc(F)c2nc(N3CCCC3)ccc2c1)c1ccco1`, the IC50 is > 50 µM (inactive).

For the compound `O=C(COc1ccc(Cl)cc1Cl)Nc1ccccc1-c1nc2ccccc2[nH]1`, the IC50 was 6.12 µM.

For the compound `CC(=O)c1ccccc1NC(=O)COc1ccc(-c2ccc(C#N)cc2)cc1`, the IC50 is > 50 µM (inactive).

With `Cc1ccc(CN2C(=O)c3cc4ccccc4n3CC2(C)C(=O)NCc2ccccc2)o1` (stereo not drawn), the IC50 is > 50 µM (inactive).

Regarding `COc1ccc(-c2nc3n(n2)C(CC(=O)Nc2cccc4ccccc24)C(=O)N3)cc1` (stereo not drawn), the IC50 was 13 µM.

On to `COc1ccc(OC)c(CCNC(=O)CCC2=NS(=O)(=O)c3ccc(C(F)(F)F)cc3N2)c1`, for which the half-maximal inhibitory concentration (IC50) was 29.2 µM.

With `O=C(Nc1cccc(Br)c1)c1cc(-c2cccnc2)n[nH]1`, the IC50 is 10.4 µM.

For `COc1ccc(NC(=O)c2cc(-c3cccnc3)n[nH]2)cc1Cl`, the half-maximal inhibitory concentration (IC50) was 17.8 µM.

Consider `O=C(c1ccsc1)N1CCC2(C1)Nc1cccnc1NC2=NC1CCCC1` (stereo not drawn), for which the IC50 was > 50 µM (inactive).

With `CCOC(=O)c1ccc(NC(=O)COc2cccc3c2CCN(CC)C3=O)cc1`, the IC50 was > 50 µM (inactive).

Consider `COc1ccc(NC(=O)Cn2c(CS(=O)(=O)c3ccc(C)cc3)nc3ccccc32)cc1`, for which the IC50 was 25.7 µM.

Take `CCn1cc(-c2cc(C(=O)Nc3cnn(Cc4cccc(F)c4)c3)c3ccccc3n2)cn1`: the IC50 is > 50 µM (inactive).

For `COC(=O)[C@]1(O)O[C@@]2(C(=O)OC)c3c(oc4cc(C)cc(O)c4c3=O)[C@H]3c4c(oc5cc(C)cc(O)c5c4=O)C[C@H]1[C@H]32`, the IC50 is > 50 µM (inactive).

As for `O=S1(=O)CCN(Cc2ccccc2)c2c(F)nc(N3CCCCC3)c(F)c21`, the IC50 is > 50 µM (inactive).

Take `COc1ccc(CCNC(=O)c2cc3ccccc3s2)cc1OC`: the IC50 is > 50 µM (inactive).

For `Cc1c(-c2nnc(-c3ccccc3Cl)o2)nnn1-c1ccccc1`, the IC50 is > 50 µM (inactive).

As to `O=C(Nc1cccn(Cc2c(Cl)cccc2Cl)c1=O)c1ccccc1[N+](=O)[O-]`, the IC50 is > 50 µM (inactive).

For the compound `COc1ncccc1CN1CCn2c(Cn3cncn3)cnc2C1C` (stereo not drawn), the IC50 was > 50 µM (inactive).

As for `O=C(Nc1nc2ccccc2s1)c1ccc2c(c1)C(=O)N(Cc1cccnc1)C2=O`, the IC50 is 38.5 µM.

As for `Cc1ccc(-n2nc(C(=O)Nc3ccc(C)cn3)c3ncn(C)c(=O)c32)cc1`, the concentration for half-maximal inhibition (IC50) was 2.1 µM.

Turning to `COc1ccc(CNC(=O)Nc2cccc3ccccc23)cc1`, the 50% inhibitory concentration (IC50) was 13.8 µM.

For `COCCCNC(=O)c1ccc(Cn2c(=O)c3ccccc3n(CC(=O)Nc3ccc(OC)cc3)c2=O)cc1`, the IC50 is 28.1 µM.

As for `O=C(NC1CCN(Cc2ccccc2)CC1)c1[nH]nc2c1COc1ccccc1-2`, the IC50 was > 50 µM (inactive).

`Cc1ccc(S(=O)(=O)N(C)C)cc1NC(=O)Cc1ccc(Cl)c(Cl)c1`: the IC50 was > 50 µM (inactive).

As for `Nc1ncnc(SCc2ccc(Cl)cc2)n1`, the IC50 was 29.3 µM.

Take `CCn1c(CN2CCCC(c3nc(-c4cccnc4)n[nH]3)C2)nc2ccccc21` (stereo not drawn): the IC50 was > 50 µM (inactive).

Turning to `COc1ccccc1NC(=O)c1nn(-c2cccc(F)c2)c(OC)cc1=O`, the IC50 was > 50 µM (inactive).

Take `COc1cc(N)c(Cl)cc1C(=O)OCC(=O)c1ccc2c(c1)OCCO2`: the IC50 is > 50 µM (inactive).

Turning to `CCOC(=O)c1ccc(NC(=O)c2cnc(N3CCOCC3)nc2)cc1`, the IC50 is > 50 µM (inactive).

Regarding `COc1cc(OC)c2c(c1)C(=O)C1=C(COC(C)(O)C1)C2=O` (stereo not drawn), the IC50 was > 50 µM (inactive).

For the compound `Cc1ccc(C(=O)Nc2cc3c4c(c2)CC(=O)N4CCC3)cc1C`, the IC50 is > 50 µM (inactive).

Regarding `O=C(COc1cccc2ccc(N3CCC(Cc4ccccc4)CC3)nc12)NCc1ccc(F)cc1`, the IC50 is 30.5 µM.

Take `CC1OC1C(=O)[C@]1(O)[C@H](C)[C@@H](O)[C@@]23O[C@@]2([C@H](O)c2c(O)cccc2C3=O)[C@H]1O` (stereo partly drawn): the IC50 was > 50 µM (inactive).

For `O=C(Cn1ncc2c(N3CCCCCC3)ncnc21)NCc1ccccc1`, the IC50 was > 50 µM (inactive).

Turning to `CS(=O)(=O)NC1CCCN(C(=O)Nc2cccc3ccccc23)C1` (stereo not drawn), the IC50 was > 50 µM (inactive).

As for `COc1ccc(Cl)cc1N1C(=O)[C@H]2[C@@H](C1=O)[C@]1(C(=O)Nc3c(C)cc(C)cc31)N1CCC[C@@H]21`, the IC50 was > 50 µM (inactive).

As to `O=C(O)COc1ccccc1/C=C1\CCc2c1nc1ccccc1c2C(=O)O`, the IC50 is > 50 µM (inactive).

Take `O=c1c2ccccc2ncn1C1CCN(S(=O)(=O)c2ccccc2F)CC1`: the IC50 was > 50 µM (inactive).

As for `CN1c2ccccc2CN(CC(N)=O)CC1Cc1ccccc1` (stereo not drawn), the IC50 is > 50 µM (inactive).

Regarding `O=C(Cn1nc2ccc(C(=O)NCc3ccccc3)cn2c1=O)Nc1ccc2c(c1)OCO2`, the IC50 was 38.4 µM.

Take `Cc1ccc2nc(CCc3ccc(NS(=O)(=O)c4cccc(Cl)c4C)cc3)[nH]c2c1`: the IC50 is > 50 µM (inactive).

Regarding `CC(C)CCN1C(=O)C2C(C(=O)Nc3ccc(Oc4ccccc4)cc3)C3C=CC2(O3)C1C(=O)NC1CCCCC1` (stereo not drawn), the IC50 is 30.7 µM.

In the case of `N#Cc1cc(C(=O)c2ccc(Cl)cc2)c[nH]1`, the IC50 was > 50 µM (inactive).

In the case of `O=c1c2cnc3nc(-c4cccnc4)nn3c2ccn1CCc1ccccc1`, the IC50 is > 50 µM (inactive).

In the case of `CCOc1ccccc1C(=O)NCC(=O)OC(C(=O)c1c[nH]c2ccccc12)c1ccccc1` (stereo not drawn), the IC50 is > 50 µM (inactive).

Consider `CC(C)=CCC/C(C)=C/C[C@]1(O)C(=O)c2cc(O)cc(O)c2C(=O)[C@@]1(Cl)CC=C(C)C`, for which the IC50 is > 50 µM (inactive).

For the compound `CC1(C(=O)NCc2ccccc2)Cn2c(cc3ccccc32)C(=O)N1Cc1ccccc1` (stereo not drawn), the IC50 is > 50 µM (inactive).

With `Cc1ccc2c(c1C)NC(=O)[C@]21[C@@H]2C(=O)N(c3cc(Cl)ccc3Cl)C(=O)[C@@H]2[C@@H]2CCCN21`, the IC50 was > 50 µM (inactive).

Take `CCOc1ccc(NC(=O)Cn2c(=O)n(CCCCCC(=O)NCc3ccc(F)cc3)c(=O)c3sccc32)cc1`: the half-maximal inhibitory concentration (IC50) is 2.67 µM.

Turning to `CN(CCCNC(=O)c1cccc2c1SCCC2=O)c1ccccc1`, the IC50 is > 50 µM (inactive).

As to `CC(=O)N1CCc2cc(CNC(=O)Nc3cc(C)ccc3C)ccc21`, the IC50 is > 50 µM (inactive).

For `Cc1nc(N2CCCC2)ncc1C(=O)Nc1ccc(F)c(F)c1`, the IC50 is > 50 µM (inactive).

Turning to `N#Cc1ccccc1Cn1c(=O)n(CCCCC(=O)NCc2ccco2)c(=O)c2ccccc21`, the IC50 is 43.5 µM.

On to `Cc1ccccc1OCCSc1nc2ccccc2n1CC(=O)NC1CC1`, for which the IC50 was 25.4 µM.

Take `CO[C@H]1[C@@H](O)[C@H](C)O[C@H](O[C@H]2[C@H](Oc3cccc4c(O)c5c(=O)oc6ccc(C)c7c(=O)oc(c34)c5c67)O[C@H](C)[C@H](O)[C@@H]2O)[C@@H]1O`: the IC50 was > 50 µM (inactive).

Regarding `COc1ccc(C(C)=O)cc1CC(=O)Nc1nc2ccccc2[nH]1`, the IC50 was > 50 µM (inactive).

Take `Cc1c(-c2nn3c(-c4ccco4)nnc3s2)cccc1[N+](=O)[O-]`: the IC50 is > 5 µM (inactive).

In the case of `CCOc1ccc(C2=NCCNC3=C2C(c2ccccc2)N(c2ccccc2)C3=O)cc1` (stereo not drawn), the IC50 was > 50 µM (inactive).

With `Cn1c2ccccc2c(=O)c2c(=O)n(Cc3ccccc3)c(-c3ccco3)nc21`, the concentration for half-maximal inhibition (IC50) was 1.55 µM.

As for `Cc1ccc(-n2c(-c3ccccc3)cn3c4c(=O)[nH]c(=O)n(C)c4nc23)cc1C`, the half-maximal inhibitory concentration (IC50) is 2 µM.

With `O=C(CNC(=O)c1cc2ccccc2[nH]1)Nc1ccc2c(c1)OCCO2`, the IC50 is > 50 µM (inactive).

For the compound `Cc1cccc(NC(=O)CSc2nnc(-c3n[nH]c4c3CCC4)n2N)c1C`, the IC50 is 17.9 µM.

As for `COc1cccc(NC(=O)c2ccc(F)cc2Cl)c1`, the IC50 was > 50 µM (inactive).

As to `O=C1NCCCC1Cc1ccc(-c2cccc(C(=O)N3CCc4ccccc4C3)c2)cc1` (stereo not drawn), the IC50 was > 50 µM (inactive).

As for `O=C(Nc1ccc(-c2nnc3n2CCCCC3)cc1)c1ccc2c(c1)OCO2`, the IC50 is > 50 µM (inactive).

For the compound `O=C(c1ccc2cc[nH]c2c1)N1CCC(Nc2cccnc2)C1` (stereo not drawn), the IC50 is > 50 µM (inactive).

Regarding `CCCC(O)CCCCCCCc1cc(O)cc(O)c1C(=O)OC(CCC)CCCCCCCc1cc(O)cc(O)c1` (stereo not drawn), the IC50 was 36 µM.

In the case of `Cn1c(=O)/c(=C/c2ccccc2)[nH]c(=O)/c1=C/c1ccccc1`, the IC50 was 22.4 µM.

On to `Cc1ccc(S(=O)(=O)Nc2ccccc2SCCS(=O)(=O)c2ccc(Cl)cc2)cc1`, for which the IC50 was > 50 µM (inactive).

With `O=C(c1ccco1)N1CCC2(CC1)CC1(CO2)Nc2ccccc2-n2cccc21` (stereo not drawn), the IC50 was > 50 µM (inactive).

Consider `Cc1cccc(O)c1-c1nc2c(-c3nc4c(C(=O)O)cccc4o3)cccc2o1`, for which the IC50 was > 50 µM (inactive).

With `CCC(C(=O)NCc1ccncc1)N(c1cccc(Cl)c1)S(C)(=O)=O` (stereo not drawn), the IC50 was > 50 µM (inactive).

Consider `Cc1cccc(NC(=O)Cn2c(N3CCOCC3)nc3cc(C)n(C)c3c2=O)c1`, for which the IC50 was 40.6 µM.

Take `Cc1ncc(CO)c2c1Oc1nc(-c3cccc(Cl)c3)nc(SCC(=O)N3CCCCC3)c1C2`: the IC50 was > 5 µM (inactive).

As for `O=C(NCCN1CCCC1)C1CCN(c2cnc(N3CCCCC3)nc2)CC1`, the IC50 was > 50 µM (inactive).

Consider `O=C(COc1ccc(Cl)cc1)N1CCc2cc3ccccc3nc21`, for which the IC50 was > 50 µM (inactive).

Take `COC(=O)C1C(c2ccc(Cl)cc2Cl)C2(C(=O)c3ccccc3C2=O)C2C=Cc3ccccc3N12` (stereo not drawn): the IC50 was > 50 µM (inactive).

In the case of `COc1cc2c(c(OCC(=O)Nc3ccc4c(c3)OCCO4)c1)C(=O)O[C@@H](C)CCCC(=O)CCCCC2`, the half-inhibitory concentration (IC50) is 48.5 µM.

Turning to `Cc1ccc(C(=O)N2CCCC3(C2)Nc2cccnc2NC3=NC2CCCC2)s1` (stereo not drawn), the IC50 is > 50 µM (inactive).

For the compound `O=c1[nH]c(C2CCN(S(=O)(=O)c3ccc(S(=O)(=O)NC4CCCCC4)cc3)CC2)nc2c1nnn2Cc1c(F)cccc1Cl`, the IC50 is 27.9 µM.

As a reminder, the IC50 is the midpoint of a concentration-inhibition curve.

The values above are taken from PubChem BioAssay AID1645868 (Buhrlage Lab, Dana-Farber Cancer Institute and Novartis …, 2021).
